From PubChem BioAssay (NCI)
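The compound was tested at five concentrations on cells cultured in 96-well plates, with a 48-hour exposure period. Here, GI50 denotes the concentration required for 50% inhibition of growth. TGI: concentration producing complete growth inhibition.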

Key:
Assay in all cases: growth of human tumour cells (NCI), 48 h
[1] = tested on: A549 NSCLC
[2] = tested on: T-47D breast
[3] = tested on: HOP-62 NSCLC
[4] = tested on: A498 renal
[5] = tested on: MDA-MB-435
[6] = tested on: HCT-116 colon
[7] = tested on: UACC-62 melanoma
[8] = tested on: IGROV1 ovarian
[9] = tested on: MDA-MB-231 breast
[10] = tested on: U251 CNS
[11] = tested on: SW-620 colon
[12] = tested on: HCT-15 colon
[13] = tested on: HT29 colon
[14] = tested on: SK-OV-3 ovarian
[15] = tested on: DU-145 prostate
[16] = tested on: COLO 205 colon
[17] = tested on: SF-268 CNS
[18] = tested on: SR leukemia
[19] = tested on: NCI-H460 lung
[20] = tested on: OVCAR-5 ovarian
[21] = tested on: SK-MEL-2 melanoma
[22] = tested on: HOP-92 NSCLC
[23] = tested on: HCC-2998 colon
[24] = tested on: MALME-3M melanoma
[25] = tested on: TK-10 renal
[26] = tested on: MOLT-4 leukemia
[27] = tested on: HS 578T breast
[28] = tested on: SF-295 CNS
[29] = tested on: KM12 colon
[30] = tested on: UACC-257 melanoma
[31] = tested on: OVCAR-8 ovarian
[32] = tested on: K-562 leukemia
[33] = tested on: CAKI-1 renal
[34] = tested on: ACHN renal
[35] = tested on: SN12C renal
[36] = tested on: SNB-19 CNS
[37] = tested on: HL-60(TB) leukemia
[38] = tested on: UO-31 renal
[39] = tested on: 786-0 renal
[40] = tested on: BT-549 breast
[41] = tested on: M14 melanoma
[42] = tested on: RXF 393 renal
[43] = tested on: NCI-H226 lung
[44] = tested on: NCI-H23 lung
[45] = tested on: PC-3 prostate
[46] = tested on: NCI/ADR-RES ovarian
[47] = tested on: NCI-H522 lung
[48] = tested on: EKVX NSCLC
[49] = tested on: OVCAR-4 ovarian
[50] = tested on: SK-MEL-28 melanoma
[51] = tested on: RPMI-8226 leukemia
[52] = tested on: SNB-75 CNS
[53] = tested on: OVCAR-3 ovarian
[54] = tested on: SF-539 CNS
[55] = tested on: LOX IMVI melanoma
[56] = tested on: SK-MEL-5 melanoma
[57] = tested on: CCRF-CEM leukemia
[58] = tested on: MCF7 breast
[59] = tested on: MDA-N

## O=C(Nc1n[nH]c2cc(-c3ccc(F)cc3)ccc12)C1CC1
[1]
  GI50: 10.5 µM
  TGI: > 25 µM
[2]
  GI50: 6.37 µM
  TGI: > 21.7 µM
[3]
  GI50: 8.37 µM
  TGI: > 23.7 µM
[4]
  GI50: 12.3 µM
  TGI: > 25 µM
[5]
  GI50: 2310 nM
  TGI: 12.1 µM
[6]
  GI50: 8.89 µM
  TGI: > 25 µM
[7]
  GI50: 12.6 µM
  TGI: > 25 µM
[8]
  GI50: > 21.8 µM
  TGI: > 25 µM
[9]
  GI50: 12.6 µM
  TGI: > 25 µM
[10]
  GI50: 10.2 µM
  TGI: > 25 µM
[11]
  GI50: 7.69 µM
  TGI: > 25 µM
[12]
  GI50: 5.7 µM
  TGI: > 25 µM
[13]
  GI50: 7.9 µM
  TGI: > 25 µM
[14]
  GI50: 6.24 µM
  TGI: 20.3 µM
[15]
  GI50: 10.2 µM
  TGI: > 25 µM
[16]
  GI50: 8.12 µM
  TGI: > 18.8 µM
[17]
  GI50: 11 µM
  TGI: > 25 µM
[18]
  GI50: 2760 nM
  TGI: > 25 µM
[19]
  GI50: 7.47 µM
  TGI: > 25 µM
[20]
  GI50: 14.8 µM
  TGI: > 25 µM
[21]
  GI50: 7.16 µM
  TGI: > 21.9 µM
[22]
  GI50: 23.3 µM
  TGI: > 25 µM
[23]
  GI50: 8.27 µM
  TGI: > 25 µM
[24]
  GI50: 9.79 µM
  TGI: > 25 µM
[25]
  GI50: > 20.8 µM
  TGI: > 25 µM
[26]
  GI50: 10.4 µM
  TGI: > 25 µM
[27]
  GI50: 10.7 µM
  TGI: > 25 µM
[28]
  GI50: 9.07 µM
  TGI: 24.6 µM
[29]
  GI50: 4.11 µM
  TGI: > 25 µM
[30]
  GI50: 14.1 µM
  TGI: > 25 µM
[31]
  GI50: 12.8 µM
  TGI: > 25 µM
[32]
  GI50: 3.69 µM
  TGI: > 25 µM
[33]
  GI50: 9.75 µM
  TGI: > 25 µM
[34]
  GI50: 16.8 µM
  TGI: > 25 µM
[35]
  GI50: 10.8 µM
  TGI: > 25 µM
[36]
  GI50: 12.6 µM
  TGI: > 25 µM
[37]
  GI50: 6.69 µM
  TGI: 22.3 µM
[38]
  GI50: 3.74 µM
  TGI: > 25 µM
[39]
  GI50: 17.7 µM
  TGI: > 25 µM
[40]
  GI50: 12.4 µM
  TGI: > 25 µM
[41]
  GI50: 8.6 µM
  TGI: > 25 µM
[42]
  GI50: 5.73 µM
  TGI: > 22.6 µM
[43]
  GI50: 9.29 µM
  TGI: > 25 µM
[44]
  GI50: 7.18 µM
  TGI: > 25 µM
[45]
  GI50: 7.98 µM
  TGI: > 25 µM
[46]
  GI50: 5.27 µM
  TGI: 22.6 µM
[47]
  GI50: 4.92 µM
  TGI: > 21.1 µM
[48]
  GI50: 12.2 µM
  TGI: > 25 µM
[49]
  GI50: 9.87 µM
  TGI: > 25 µM
[50]
  GI50: 12.3 µM
  TGI: > 25 µM
[51]
  GI50: 8.44 µM
  TGI: > 25 µM
[52]
  GI50: 11.1 µM
  TGI: > 25 µM
[53]
  GI50: 6.33 µM
  TGI: 20 µM
[54]
  GI50: 11.2 µM
  TGI: > 25 µM
[55]
  GI50: 10.7 µM
  TGI: > 25 µM
[56]
  GI50: 5.56 µM
  TGI: > 18.1 µM
[57]
  GI50: 8.77 µM
  TGI: > 25 µM
[58]
  GI50: 5.54 µM
  TGI: > 22.2 µM

## C#CCn1c(=O)c2cc(OC)c(OC)cc2n(CC#C)c1=O
[1]
  TGI: > 10 µM
[2]
  TGI: > 10 µM
[3]
  TGI: > 10 µM
[4]
  TGI: > 10 µM
[5]
  TGI: > 10 µM
[6]
  TGI: > 10 µM
[8]
  TGI: > 10 µM
[9]
  TGI: > 10 µM
[10]
  TGI: > 10 µM
[11]
  TGI: > 10 µM
[12]
  TGI: > 10 µM
[13]
  TGI: > 10 µM
[14]
  TGI: > 10 µM
[15]
  TGI: > 10 µM
[16]
  TGI: > 10 µM
[17]
  TGI: > 10 µM
[19]
  TGI: > 10 µM
[20]
  TGI: > 10 µM
[21]
  TGI: > 10 µM
[22]
  TGI: > 10 µM
[23]
  TGI: > 10 µM
[24]
  TGI: > 10 µM
[25]
  TGI: > 10 µM
[26]
  TGI: > 10 µM
[27]
  TGI: > 10 µM
[28]
  TGI: > 10 µM
[29]
  TGI: > 10 µM
[30]
  TGI: > 10 µM
[59]
  TGI: > 10 µM
[31]
  TGI: > 10 µM
[32]
  TGI: > 10 µM
[33]
  TGI: > 10 µM
[34]
  TGI: > 10 µM
[35]
  TGI: > 10 µM
[36]
  TGI: > 10 µM
[38]
  TGI: > 10 µM
[39]
  TGI: > 10 µM
[41]
  TGI: > 10 µM
[42]
  TGI: > 10 µM
[43]
  TGI: > 10 µM
[44]
  TGI: > 10 µM
[45]
  TGI: > 10 µM
[46]
  TGI: > 10 µM
[47]
  TGI: > 10 µM
[48]
  TGI: > 10 µM
[49]
  TGI: > 10 µM
[50]
  TGI: > 10 µM
[51]
  TGI: > 10 µM
[52]
  TGI: > 10 µM
[53]
  TGI: > 10 µM
[54]
  TGI: > 10 µM
[55]
  TGI: > 10 µM
[56]
  TGI: > 10 µM
[57]
  TGI: > 10 µM
[58]
  TGI: > 10 µM
